Reference: patent publication US12729377B2, “RNAi agents and compositions for inhibiting expression of angiopoietin-like 3 (ANGPTL3), and methods of use” (Arrowhead Pharmaceuticals, Inc., priority 2017, dated 2026)
In the oligonucleotide strings, read from the 5' end, every base follows the letter of its sugar. An asterisk marks phosphorothioate; unmarked linkages are phosphodiester. Other units and linkages are bracketed, terminal groups are in braces. A string of capitals states the bases alone. {NAG37} = tridentate N-acetyl-galactosamine targeting ligand, structure (NAG37)s; [invAb] = inverted abasic unit; m = 2'-O-methyl; f = 2'-fluoro

Tests used:
ANGPTL3 protein = test: Example 3: serum ANGPTL3 protein by ELISA in mice; assay type: in vivo, C57bl/6 mice; details: for Avg ANGPTL3 (Average ANGPTL3 Protein Normalized to Pre-Treatment and Control): 1.0 mg/kg single subcutaneous dose on day 1, serum, female C57bl/6 mice
Procedure: (§1) To assess the in vivo activity of ANGPTL3 RNAi agents that are designed to target positions 921 and 922 on the ANGPTL3 gene, six- to eight-week-old female C57bl/6 mice were used. Pre-dose serum samples were taken at day −1 after a four hour fast. At day 1, each mouse was given a single subcutaneous administration of 200 μl containing either 1 mg/kg (mpk) of an ANGPTL3 RNAi agent in D5W (dextrose in 5% water), or control (D5W) with no RNAi agent, according to the dosing groups recited in Table 12.
(§2) Each of the RNAi agents included a modified sequence and an N-acetyl-galactosamine-containing targeting ligand conjugated to the 5′ terminal end of the sense strand. (See Tables 3, 4, and 5 for modified sequences and targeting ligand structures). The injections were performed between the skin and muscle (i.e. subcutaneous injections) into the loose skin over the neck and shoulder area. Three (3) mice in each group were tested (n=3). […] Mice were fasted for four hours prior to each collection. ANGPTL3 protein levels in serum were measured by ELISA assay (R&D Systems), according to the manufacturer's recommendations. Triglycerides, high-density lipoprotein (HDL), and total cholesterol in serum were measured on a Cobas® Integra 400 (Roche Diagnostics), according to the manufacturer's recommendations.
(§3) The ANGPTL3 protein levels, triglyceride levels, HDL levels, and total cholesterol levels for each animal were normalized. For normalization, the level of ANGPTL3 protein, triglyceride, HDL, and total cholesterol, respectively, for each animal at a time point, was divided by the pre-treatment level of expression in that animal (in this case at day −1) to determine the ratio of expression “normalized to pre-treatment.” Expression at a specific time point was then normalized to the D5W control group by dividing the “normalized to pre-treatment” ratio for an individual animal by the mean “normalized to pretreatment” ratio of all mice in the D5W control group.

ANGPTL3 gene [1] = test: Example 3: serum HDL in mice; assay type: in vivo
Procedure: as §1, §2, §3

ANGPTL3 gene [2] = test: Example 4: serum HDL in mice; assay type: in vivo, C57bl/6 mice
Procedure: as §1, with “target additional” for “target”, “positions” for “positions 921 and 922”, “(mpk) or 0.5 mg/kg (mpk)” for “(mpk)”, “17.” for “12.”
(§4) Each of the RNAi agents included a modified sequence and an N-acetyl-galactosamine-containing targeting ligand conjugated to the 5′ terminal end of the sense strand. (See Tables 3, 4, and 5 for modified sequences and targeting ligand structures). The injections were performed between the skin and muscle (i.e. subcutaneous injections) into the loose skin over the neck and shoulder area. Three (3) mice in each group were tested (n=3). Serum was collected on days 8, 15, 22, 29, and day 43 (Groups 1-3, 9, and 11-13 only). Mice were fasted for four hours prior to each collection. ANGPTL3 protein levels in serum were measured by ELISA assay (R&D Systems), according to the manufacturer's recommendations. Triglycerides, high-density lipoprotein (HDL), and total cholesterol in serum were measured on a Cobas® Integra 400 (Roche Diagnostics), according to the manufacturer's recommendations.
as §3

ANGPTL3 gene [3] = test: Example 7: serum triglycerides in mice; assay type: in vivo, C57bl/6 mice; parameters: key: ratio: (level/pre-treatment day -1 level) ÷ mean of D5W control group
Procedure: (§5) To further assess the in vivo activity of additional ANGPTL3 RNAi agents that are designed to target position 304 on the ANGPTL3 gene, six- to eight-week-old female C57bl/6 mice were used. Pre-dose serum samples were taken at day −1 after a four hour fast. At day 1, each mouse was given a single subcutaneous administration of 200 μl containing 0.5 mg/kg (mpk) of an ANGPTL3 RNAi agent in D5W (dextrose in 5% water), or control (D5W) with no RNAi agent, according to the dosing groups recited in Table 31.
as §4, with “22,” for “22, 29,”, “29.” for “day 43 (Groups 1-3, 9, and 11-13 only).”, “Triglycerides, total cholesterol,” for “Triglycerides,”, “low-density lipoprotein (LDL)” for “total cholesterol”
(§6) The ANGPTL3 protein levels, triglyceride levels, total cholesterol levels, HDL levels, and LDL levels for each animal were normalized. For normalization, the level of ANGPTL3 protein, triglyceride, HDL, and total cholesterol, respectively, for each animal at a time point, was divided by the pre-treatment level of expression in that animal (in this case at day −1) to determine the ratio of expression “normalized to pre-treatment.” Expression at a specific time point was then normalized to the D5W control group by dividing the “normalized to pre-treatment” ratio for an individual animal by the mean “normalized to pretreatment” ratio of all mice in the D5W control group.

ANGPTL3 gene [4] = test: Example 7: serum HDL in mice; assay type: in vivo; parameters: key: ratio: (level/pre-treatment day -1 level) ÷ mean of D5W control group; details: 0.5 mg/kg single SC injection day 1, female C57bl/6 mice, n=3, ratio to D5W control
Procedure: as §5
as §4, with “22,” for “22, 29,”, “29.” for “day 43 (Groups 1-3, 9, and 11-13 only).”, “Triglycerides, total cholesterol,” for “Triglycerides,”, “low-density lipoprotein (LDL)” for “total cholesterol”
as §6

[5] = day 22, single 1 mg/kg subcutaneous, C57bl/6 mice
[6] = Day 8, 0.5 mg/kg single SC injection on day 1, n=3
[7] = Day 8, 1.0 mg/kg single SC injection on day 1, n=3
[8] = Day 15, 0.5 mg/kg single SC injection on day 1, n=3
[9] = Day 15, 1.0 mg/kg single SC injection on day 1, n=3
[10] = Day 22, 0.5 mg/kg single SC injection on day 1, n=3
[11] = Day 22, 1.0 mg/kg single SC injection on day 1, n=3
[12] = Day 29, 0.5 mg/kg single SC injection on day 1, n=3
[13] = Day 29, 1.0 mg/kg single SC injection on day 1, n=3
[14] = Day 43, 1.0 mg/kg single SC injection on day 1, n=3

Substance	Avg HDL, normalized to pre-treatment and control (ANGPTL3 gene [2]; [7])	Avg HDL, normalized to pre-treatment and control (ANGPTL3 gene [2]; [9])	Avg HDL, normalized to pre-treatment and control (ANGPTL3 gene [2]; [11])	Avg HDL, normalized to pre-treatment and control (ANGPTL3 gene [2]; [13])	Avg HDL, normalized to pre-treatment and control (ANGPTL3 gene [2]; [14])	Avg TG, normalized to pre-treatment and control (ANGPTL3 gene [3]; [6])	Avg TG, normalized to pre-treatment and control (ANGPTL3 gene [3]; [8])	Avg TG, normalized to pre-treatment and control (ANGPTL3 gene [3]; [10])	Avg TG, normalized to pre-treatment and control (ANGPTL3 gene [3]; [12])	Avg HDL, normalized to pre-treatment and control (ANGPTL3 gene [4]; Day 8)	Avg HDL, normalized to pre-treatment and control (ANGPTL3 gene [4]; Day 15)	Avg HDL, normalized to pre-treatment and control (ANGPTL3 gene [4]; Day 22)	Avg HDL, normalized to pre-treatment and control (ANGPTL3 gene [4]; Day 29)	other results
AD05308: RNAi agent duplex: antisense AM07003-AS, sense AM07002-SS (chain 1 mU*fG*mU*fUmGfAmAfUmUfAmAfUmGfUmCfCmAfUmGfG*mA; chain 2 {NAG37}*[invAb]*mUmCmCmAmUmGmGmAfCfAfUmUmAmAmUmUmCmAmAmCmA*[invAb])	0.904	0.801	0.728	0.824	1.096	0.836	0.755	0.839	0.705	0.750	0.791	0.846	0.905	Avg ANGPTL3 (Average ANGPTL3 Protein Normalized to Pre-Treatment and Control) (ANGPTL3 protein; Day 8): 0.196; Avg ANGPTL3 (Average ANGPTL3 Protein Normalized to Pre-Treatment and Control) (ANGPTL3 protein; Day 15): 0.202; Avg ANGPTL3 (Average ANGPTL3 Protein Normalized to Pre-Treatment and Control) (ANGPTL3 protein; Day 22): 0.209; Avg ANGPTL3 (Average ANGPTL3 Protein Normalized to Pre-Treatment and Control) (ANGPTL3 protein; Day 29): 0.309; ANGPTL3 protein normalized to pre-treatment and control (ANGPTL3 protein; [5]): 0.209; reduction in ANGPTL3 protein levels compared to control (ANGPTL3 protein; [5]): ~80%; Avg HDL (Average HDL Normalized to Pre-Treatment and Control) (ANGPTL3 gene [1]; Day 8, 1.0 mg/kg single subcutaneous dose on day 1, female C57bl/6 mice): 0.838; Avg HDL (Average HDL Normalized to Pre-Treatment and Control) (ANGPTL3 gene [1]; Day 15, 1.0 mg/kg single subcutaneous dose on day 1, female C57bl/6 mice): 0.754; Avg HDL (Average HDL Normalized to Pre-Treatment and Control) (ANGPTL3 gene [1]; Day 22, 1.0 mg/kg single subcutaneous dose on day 1, female C57bl/6 mice): 0.739; Avg HDL (Average HDL Normalized to Pre-Treatment and Control) (ANGPTL3 gene [1]; Day 29, 1.0 mg/kg single subcutaneous dose on day 1, female C57bl/6 mice): 0.953; Avg HDL, normalized to pre-treatment and control (ANGPTL3 gene [2]; [6]): 1.007; Avg HDL, normalized to pre-treatment and control (ANGPTL3 gene [2]; [8]): 0.770; Avg HDL, normalized to pre-treatment and control (ANGPTL3 gene [2]; [10]): 0.921; Avg HDL, normalized to pre-treatment and control (ANGPTL3 gene [2]; [12]): 0.934; Avg HDL, normalized to pre-treatment and control (ANGPTL3 gene [2]; Day 43, 0.5 mg/kg single SC injection on day 1, n=3): 1.101
AD05488: RNAi agent duplex: antisense AM07235-AS, sense AM07234-SS (antisense mU*fA*mC*fUmGfAmUfCmAfAmAfUmAfUmGfUmUfGmAfG*mC; sense {NAG37}*[invAb]*mGmCmUmCmAmAmCmAfUfAfUmUmUmGmAmUmCmAmGmUmA*[invAb])	0.839	0.644	0.727	0.771	0.833	0.856	0.947	0.922	0.877	0.783	0.793	0.780	0.886	
